Values of other authors in patent US20080045610A1, “Methods for regulating neurotransmitter systems by inducing counteradaptations” (priority 2004, published 2008).

Columns and labels:
opiate receptor = conditions: compared with native morphine compound
[1] = parent compound itself
[2] = in vivo

## CN1CC[C@]23c4c5ccc(O)c4O[C@H]2CC=C[C@H]3[C@H]1C5 [6-desoxymorphine]
Opiate receptor
  activity relative to native morphine: 10 times

## CC(=O)Oc1ccc2c3c1O[C@H]1[C@@H](OC(C)=O)C=C[C@H]4[C@@H](C2)N(C)CC[C@@]341 [diacetylmorphine]
other
  oral bioavailability: ~67%

## C=C1CC[C@@]2(O)[C@H]3Cc4ccc(O)c5c4[C@@]2(CCN3CC2CC2)[C@H]1O5 [nalmefene]
[1]
  half-life: 8 h
[2]
  liver toxicity: no dose dependent liver toxicity
